Test results: patent US20100035866A1, “NOVEL SUBSTITUTED-1, 1-DIOXO-BENZO[1,2,4]THIADIAZIN-3ONES, PREPARATION METHOD THEREOF, AND PHARMACEUTICAL COMPOSITION CONTAINING THE SAME” (KOREA RESEARCH INSTITUTE OF CHEMICAL TECHNOLOGY, priority 2006, published 2010)

Key:
5-HT1a = target: T1, 5-HT1a (Homo sapiens, UniProt P08908); test: Radioligand binding, 5-HT receptor family: 5-HT1a ([3H]8-OH-DPAT); conditions: CHO-K1 human recombinant receptor, [3H]8-OH-DPAT 0.5 nM; read-out: Binding affinity, IC50 (nM), 5-HT1a
T1 construct: purchased Euroscreen/BioSignal Packard Inc
T1 sequence (P08908 1-422): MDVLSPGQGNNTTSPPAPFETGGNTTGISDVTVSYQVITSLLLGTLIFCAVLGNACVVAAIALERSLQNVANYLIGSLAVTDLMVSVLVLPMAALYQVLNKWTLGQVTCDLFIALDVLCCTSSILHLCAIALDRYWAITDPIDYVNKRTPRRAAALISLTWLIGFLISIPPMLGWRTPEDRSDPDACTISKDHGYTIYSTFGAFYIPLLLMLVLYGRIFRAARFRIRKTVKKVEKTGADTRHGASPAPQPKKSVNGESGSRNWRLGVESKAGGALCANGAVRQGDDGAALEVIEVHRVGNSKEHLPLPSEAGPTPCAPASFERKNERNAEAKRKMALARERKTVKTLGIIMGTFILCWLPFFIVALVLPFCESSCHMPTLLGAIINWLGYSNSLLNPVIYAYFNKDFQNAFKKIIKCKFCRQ

5-HT2a = target: T2, 5-HT2a (Homo sapiens, UniProt P28223); test: Radioligand binding, 5-HT receptor family: 5-HT2a ([3H]Ketanserin); conditions: CHO-K1 human recombinant receptor, [3H]Ketanserin 1 nM; read-out: Binding affinity, IC50 (nM), 5-HT2a
T2 construct: purchased Euroscreen/BioSignal Packard Inc

5-HT2c = target: T3, 5-HT2c (Homo sapiens, UniProt P28335); test: Radioligand binding, 5-HT receptor family: 5-HT2c ([3H]Mesulergine); conditions: CHO-K1 human recombinant receptor, [3H]Mesulergine 1 nM; read-out: Binding affinity, IC50 (nM), 5-HT2c
T3 construct: purchased Euroscreen/BioSignal Packard Inc
T3 sequence (P28335 33-458): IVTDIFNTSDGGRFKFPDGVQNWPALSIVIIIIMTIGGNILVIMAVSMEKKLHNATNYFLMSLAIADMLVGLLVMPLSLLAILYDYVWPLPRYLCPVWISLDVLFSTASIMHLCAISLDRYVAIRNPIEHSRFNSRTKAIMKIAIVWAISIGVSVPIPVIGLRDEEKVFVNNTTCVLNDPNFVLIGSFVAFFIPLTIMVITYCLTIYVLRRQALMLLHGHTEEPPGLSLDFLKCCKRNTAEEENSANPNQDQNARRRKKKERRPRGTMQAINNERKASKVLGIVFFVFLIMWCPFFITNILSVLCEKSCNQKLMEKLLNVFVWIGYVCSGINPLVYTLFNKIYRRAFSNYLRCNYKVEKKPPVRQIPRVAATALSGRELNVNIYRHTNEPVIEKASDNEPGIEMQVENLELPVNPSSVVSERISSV

5-HT7 = target: T4, 5-HT7 (Homo sapiens, UniProt P34969); test: Radioligand binding, 5-HT receptor family: 5-HT7 ([3H]LSD); conditions: CHO-K1 human recombinant receptor, [3H]LSD 3 nM; read-out: Binding affinity, IC50 (nM), 5-HT7
T4 construct: purchased Euroscreen/BioSignal Packard Inc
Protocol: Radioligand bindings were performed according to the test method provided by the supplier of receptor membrane (Euroscreen/BioSignal Packard Inc.). The detailed assay conditions and the results were shown in the following Table 3 and Table 4, respectively.

hD2L receptor = target: T5, hD2L receptor (Homo sapiens, UniProt P14416); test: Dopamine receptor family binding: D2 ([3H]spiperone); conditions: [3H]spiperone 1 nM; read-out: Binding affinity, IC50 (nM), D2
T5 construct: purchased BioSignal Packard Inc., Montreal, Canada
Protocol: (§1) 2-2: Binding Assays of Dopamine Receptor Family
(§2) The radioligands used were [^3H]spiperone (for hD2L and hD3 receptors, 1 nM) and [^3H] YM-09151-2 (for hD4.2 receptor, 0.06 nM). Radioligand bindings were performed by the protocols provided by the supplier of receptor membranes (BioSignal Packard Inc., Montreal, Canada). Briefly, the buffer used in D2 or D3 receptor binding assay was 50 mM Tris-HCl (pH 7.4), 10 mM MgCl2, 1 mM EDTA, or 50 mM Tris-HCl (pH 7.4), 5 mM MgCl2 5 mM EDTA, 5 mM KCl, 1.5 mM CaCl2, 120 mM NaCl, respectively. In [^3H] YM-09151-2 receptor binding assays, the buffer containing 50 mM Tris-HCl (pH 7.4), 5 mM MgCl2, 5 mM EDTA, 5 mM KCl and 1.5 mM CaCl2 was used. […] Competition binding studies were carried out with 7-8 concentrations of the test compound run in duplicate tubes, and isotherms from three assays were calculated by computerized nonlinear regression analysis (GraphPad Prism Program, San Diego, […]) to yield median inhibitory concentration (IC50) values.

hD3 receptor = target: T6, hD3 receptor (Homo sapiens, UniProt P35462); test: Dopamine receptor family binding: D3 ([3H]spiperone); conditions: [3H]spiperone 1 nM; read-out: Binding affinity, IC50 (nM), D3
T6 construct: purchased BioSignal Packard Inc., Montreal, Canada

hD4.2 receptor = target: T7, hD4.2 receptor (Homo sapiens, UniProt P21917, DEL265-296); test: Dopamine receptor family binding: D4 ([3H]YM-09151-2); conditions: [3H]YM-09151-2 0.06 nM; read-out: Binding affinity, IC50 (nM), D4
T7 construct: purchased BioSignal Packard Inc., Montreal, Canada
T7 sequence (P21917 with tags, fused parts or gaps DEL265-296): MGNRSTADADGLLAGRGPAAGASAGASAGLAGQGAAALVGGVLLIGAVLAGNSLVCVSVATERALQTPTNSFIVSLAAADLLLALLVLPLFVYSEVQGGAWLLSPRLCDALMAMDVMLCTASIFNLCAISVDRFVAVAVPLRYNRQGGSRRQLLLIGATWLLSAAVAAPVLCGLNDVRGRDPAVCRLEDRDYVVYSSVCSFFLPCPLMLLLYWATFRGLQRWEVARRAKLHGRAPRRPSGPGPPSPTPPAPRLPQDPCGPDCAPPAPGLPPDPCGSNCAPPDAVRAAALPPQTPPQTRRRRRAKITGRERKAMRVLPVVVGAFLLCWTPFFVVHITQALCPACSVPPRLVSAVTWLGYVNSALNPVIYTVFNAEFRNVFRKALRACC
Protocol: as §1, §2

[1] = target: Human serotonin 5-HT6 receptor (Homo sapiens, UniProt P50406); test: [3H]LSD binding assay on cloned 5-HT6 receptor; conditions: IC50 (nM)
[2] = Binding affinity, 5-HT6, Table 4
[3] = binding affinity to the 5-HT6 receptor, Table 2, 1.87 nM [3H]LSD, cloned human receptor membranes from Sf21 cells, 37° C. 60 min

T5 sequence (P14416 whole entry): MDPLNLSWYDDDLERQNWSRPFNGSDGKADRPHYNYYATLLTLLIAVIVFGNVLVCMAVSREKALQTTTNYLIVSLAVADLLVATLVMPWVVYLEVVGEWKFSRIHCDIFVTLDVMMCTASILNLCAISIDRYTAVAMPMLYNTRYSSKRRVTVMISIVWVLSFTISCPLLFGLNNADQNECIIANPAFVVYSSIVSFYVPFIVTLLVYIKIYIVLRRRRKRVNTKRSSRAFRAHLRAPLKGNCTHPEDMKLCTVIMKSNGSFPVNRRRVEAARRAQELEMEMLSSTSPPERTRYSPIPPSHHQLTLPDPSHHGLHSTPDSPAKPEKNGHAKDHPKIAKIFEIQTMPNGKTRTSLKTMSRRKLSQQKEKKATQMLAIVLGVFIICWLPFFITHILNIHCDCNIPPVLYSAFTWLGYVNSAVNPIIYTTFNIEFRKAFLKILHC
T2 sequence (P28223 whole entry): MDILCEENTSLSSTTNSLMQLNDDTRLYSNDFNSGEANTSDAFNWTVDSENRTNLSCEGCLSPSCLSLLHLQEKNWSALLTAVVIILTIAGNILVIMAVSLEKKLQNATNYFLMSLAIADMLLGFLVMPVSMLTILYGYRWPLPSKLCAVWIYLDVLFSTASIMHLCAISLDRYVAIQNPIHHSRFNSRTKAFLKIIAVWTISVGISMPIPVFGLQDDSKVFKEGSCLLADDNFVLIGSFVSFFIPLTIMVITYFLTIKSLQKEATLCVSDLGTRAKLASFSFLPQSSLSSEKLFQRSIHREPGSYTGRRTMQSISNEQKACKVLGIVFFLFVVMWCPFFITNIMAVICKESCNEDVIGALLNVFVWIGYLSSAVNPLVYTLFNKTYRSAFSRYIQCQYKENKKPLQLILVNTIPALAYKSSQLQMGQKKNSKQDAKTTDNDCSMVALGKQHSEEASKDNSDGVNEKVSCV
Chain of Human serotonin 5-HT6 receptor (P50406 whole entry): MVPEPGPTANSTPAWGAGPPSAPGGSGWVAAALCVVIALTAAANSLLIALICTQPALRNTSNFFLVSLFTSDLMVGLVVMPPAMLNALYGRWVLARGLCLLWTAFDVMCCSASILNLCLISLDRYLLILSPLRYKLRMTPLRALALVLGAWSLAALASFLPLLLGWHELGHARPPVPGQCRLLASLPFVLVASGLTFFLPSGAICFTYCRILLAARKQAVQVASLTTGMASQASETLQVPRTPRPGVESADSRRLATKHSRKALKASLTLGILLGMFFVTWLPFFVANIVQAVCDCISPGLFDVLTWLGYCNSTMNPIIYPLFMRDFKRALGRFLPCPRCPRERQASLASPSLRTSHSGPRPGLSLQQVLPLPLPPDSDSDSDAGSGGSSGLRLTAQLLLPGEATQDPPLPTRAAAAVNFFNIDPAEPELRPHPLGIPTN
T6 sequence (P35462 whole entry): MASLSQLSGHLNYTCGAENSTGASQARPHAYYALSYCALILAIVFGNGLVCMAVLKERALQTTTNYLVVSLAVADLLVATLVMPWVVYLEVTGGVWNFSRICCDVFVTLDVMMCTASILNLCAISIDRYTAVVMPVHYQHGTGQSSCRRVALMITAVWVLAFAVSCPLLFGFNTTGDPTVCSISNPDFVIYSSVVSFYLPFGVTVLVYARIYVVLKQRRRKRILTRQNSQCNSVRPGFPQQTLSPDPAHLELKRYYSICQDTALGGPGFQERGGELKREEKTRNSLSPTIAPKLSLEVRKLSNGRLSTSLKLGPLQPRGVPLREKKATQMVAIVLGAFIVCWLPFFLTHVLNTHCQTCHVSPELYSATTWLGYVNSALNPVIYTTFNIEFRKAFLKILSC
T4 sequence (P34969 whole entry): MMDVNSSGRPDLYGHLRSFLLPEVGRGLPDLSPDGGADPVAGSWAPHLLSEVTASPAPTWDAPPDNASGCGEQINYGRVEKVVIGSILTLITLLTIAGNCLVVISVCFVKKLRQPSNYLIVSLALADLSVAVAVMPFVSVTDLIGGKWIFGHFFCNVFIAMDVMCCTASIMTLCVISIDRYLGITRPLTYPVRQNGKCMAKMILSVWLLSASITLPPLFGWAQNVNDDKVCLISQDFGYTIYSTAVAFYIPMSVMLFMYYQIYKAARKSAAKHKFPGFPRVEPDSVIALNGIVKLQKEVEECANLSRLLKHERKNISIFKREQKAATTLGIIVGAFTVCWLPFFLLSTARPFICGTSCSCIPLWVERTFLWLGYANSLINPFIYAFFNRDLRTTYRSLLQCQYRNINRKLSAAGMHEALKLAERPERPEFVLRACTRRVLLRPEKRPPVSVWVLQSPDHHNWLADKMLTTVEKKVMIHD

SMILES	IC50 (5-HT1a) [nM]	IC50 (5-HT2a) [nM]	IC50 (5-HT2c) [nM]	IC50 (5-HT7) [nM]	IC50 (hD2L receptor) [nM]	IC50 (hD3 receptor) [nM]	IC50 (hD4.2 receptor) [nM]	melting point [°C]	IC50 [1, 2] [nM]	IC50 [1, 3] [nM]
CN1CCN(c2cc(Cl)cc3c2S(=O)(=O)N(Cc2cccc(F)c2)C(=O)N3Cc2ccccc2)CC1 [Example 3, 4-Benzyl-6-chloro-2-(3-fluoro-benzyl)-8-(4-methyl-piperazin-1-yl)-1,1-dioxo-1,4-dihydro-2H-1λ^6-benzo[1,2,4]thiadiazin-3-one]	5980	846	2190	> 10000	> 10000	537	> 10000	85 to 87	0.7	0.7
CN1CCN(c2cc(Cl)cc3c2S(=O)(=O)N(Cc2cccc4ccccc24)C(=O)N3Cc2ccccc2)CC1 [Example 41, 4-Benzyl-6-chloro-8-(4-methyl-piperazin-1-yl)-2-naphthalen-1-ylmethyl-1,1-dioxo-1,4-dihydro-2H-1λ^6-benzo[1,2,4]thiadiazin-3-one]	> 10000	365	257	> 10000	> 10000	420	> 10000	114 to 115	0.8	0.8
CCN1C(=O)N(Cc2ccccc2)c2cc(Cl)cc(N3CCN(C)CC3)c2S1(=O)=O [Example 33, 4-Benzyl-6-chloro-2-ethyl-8-(4-methyl-piperazin-1-yl)-1,1-dioxo-1,4-dihydro-2H-1λ^6-benzo[1,2,4]thiadiazin-3-one]	2620	119	1240	> 10000	> 10000	3170	> 10000	167 to 169	0.3	0.3
CCCCCCCCN1C(=O)N(Cc2ccccc2)c2cc(Cl)cc(N3CCN(C)CC3)c2S1(=O)=O [Example 39, 4-Benzyl-6-chloro-8-(4-methyl-piperazin-1-yl)-2-octyl-1,1-dioxo-1,4-dihydro-2H-1λ^6-benzo[1,2,4]thiadiazin-3-one]	894	1320	1050	3170	> 10000	130	> 10000	88 to 91	1.8	1.8
CN1CCN(c2cc(Cl)cc3c2S(=O)(=O)N(Cc2ccccc2Cl)C(=O)N3Cc2ccccc2)CC1 [Example 5, 4-Benzyl-6-chloro-2-(2-chloro-benzyl)-8-(4-methyl-piperazin-1-yl)-1,1-dioxo-1,4-dihydro-2H-1λ^6-benzo[1,2,4]thiadiazin-3-one]	3010	396	240	> 10000	5090	93	> 10000	132 to 133	1.3	1.3
CCCN1C(=O)N(Cc2ccccc2)c2cc(Cl)cc(N3CCN(C)CC3)c2S1(=O)=O [Example 34, 4-Benzyl-6-chloro-8-(4-methyl-piperazin-1-yl)-2-propyl-1,1-dioxo-1,4-dihydro-2H-1λ^6-benzo[1,2,4]thiadiazin-3-one]	2390	436	203	> 10000	> 10000	1860	> 10000	91 to 93	0.4	0.4
CN1CCN(c2cc(Cl)cc3c2S(=O)(=O)N(Cc2ccc(Cl)cc2)C(=O)N3Cc2ccccc2)CC1 [Example 7, 4-Benzyl-6-chloro-2-(4-chloro-benzyl)-8-(4-methyl-piperazin-1-yl)-1,1-dioxo-1,4-dihydro-2H-1λ^6-benzo[1,2,4]thiadiazin-3-one]	3910	488	1540	> 10000	> 10000	555	> 10000	99 to 100	2.3	2.3
CN1CCN(c2cc(Cl)cc3c2S(=O)(=O)N(Cc2ccccc2F)C(=O)N3Cc2ccccc2)CC1 [Example 2, 4-Benzyl-6-chloro-2-(2-fluoro-benzyl)-8-(4-methyl-piperazin-1-yl)-1,1-dioxo-1,4-dihydro-2H-1λ^6-benzo[1,2,4]thiadiazin-3-one]	2300	335	578	> 10000	> 10000	390	> 10000	118 to 120	1.9	1.9
